Data as given in US20230081390A1, “INHIBITORS OF RAF KINASES” (Kinnate Biopharma Inc., priority 2019, published 2023).

Target: human RAF1 (Homo sapiens, UniProt P04049)
Assay: Protein kinase assay (33P-ATP filter binding), human RAF1, 10-dose IC50
Format: biochemical
Conditions: MEK1 (K97R) substrate 3 micromolar, ATP 10 micromolar, read-out: RAF-1 IC50
In short: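 Radiometric filter-binding format: 10 µM ATP, 3 µM MEK1 (K97R) as substrate for human RAF1, 2 hr at room temperature in 20 mM HEPES pH 7.5 with 10 mM MgCl2. Compounds were dispensed acoustically from DMSO. IC50 came from percent kinase activity relative to vehicle over a 10-dose series.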

Sequence of human RAF1 (P04049 whole entry): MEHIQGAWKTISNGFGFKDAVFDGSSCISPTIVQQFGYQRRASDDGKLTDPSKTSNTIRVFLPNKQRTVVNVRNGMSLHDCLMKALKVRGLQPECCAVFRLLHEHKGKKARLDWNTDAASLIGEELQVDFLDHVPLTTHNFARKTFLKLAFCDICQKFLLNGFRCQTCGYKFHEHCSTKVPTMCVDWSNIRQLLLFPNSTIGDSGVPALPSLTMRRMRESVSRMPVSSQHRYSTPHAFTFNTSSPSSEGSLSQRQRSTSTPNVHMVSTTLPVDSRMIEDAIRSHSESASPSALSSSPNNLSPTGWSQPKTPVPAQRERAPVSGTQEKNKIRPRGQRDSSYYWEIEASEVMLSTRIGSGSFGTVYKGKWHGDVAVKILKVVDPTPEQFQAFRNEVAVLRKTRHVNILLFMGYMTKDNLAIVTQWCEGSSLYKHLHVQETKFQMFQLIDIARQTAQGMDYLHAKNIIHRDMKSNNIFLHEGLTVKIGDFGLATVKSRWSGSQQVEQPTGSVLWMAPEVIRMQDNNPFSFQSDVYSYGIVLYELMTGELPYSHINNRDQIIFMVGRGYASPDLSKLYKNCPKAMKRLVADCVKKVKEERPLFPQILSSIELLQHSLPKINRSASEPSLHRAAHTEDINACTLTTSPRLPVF

| IC50 [nM] | Compound |
| --- | --- |
| < 10 | Cc1ccc(NC(=O)N2CCC(CC(F)(F)F)C2)cc1-c1cc(O[C@H]2CCN(C)C2)nc(N2CCOCC2)c1 (stereo partly drawn) [Example 195, N-(4-methyl-3-(2-(((S)-1-methylpyrrolidin-3-yl)oxy)-6-morpholinopyridin-4-yl)phenyl)-3-(2,2,2-trifluoroethyl)pyrrolidine-1-carboxamide] |
| < 10 | Cc1cc(F)c(NC(=O)N2CC[C@H](CC(F)(F)F)C2)cc1-c1cc(OCCO)nc(N2CCOCC2)c1 [Example 36, (3R)-N-[2-fluoro-5-[2-(2-hydroxyethoxy)-6-(morpholin-4-yl)pyridin-4-yl]-4-methylphenyl]-3-(2,2,2-trifluoroethyl)pyrrolidine-1-carboxamide] |
| < 10 | Cc1ccc(NC(=O)N2CC[C@@H](OC(F)(F)F)C2)cc1-c1cnc(OC2CCOCC2)c(N2CCOCC2)c1 [Example 128, (3R)-N-[4-methyl-3-[5-(morpholin-4-yl)-6-(oxan-4-yloxy)pyridin-3-yl]phenyl]-3-(trifluoromethoxy)pyrrolidine-1-carboxamide] |
| < 10 | Cc1ccc(NC(=O)N2CC[C@@H](CC(F)(F)F)C2)cc1-c1cc(OC[C@@H](C)O)nc(N2CCO[C@H](C)C2)c1 [Example 228, (S)-N-(3-(2-((R)-2-hydroxypropoxy)-6-((R)-2-methylmorpholino)pyridin-4-yl)-4-methylphenyl)-3-(2,2,2-trifluoroethyl)pyrrolidine-1-carboxamide] |
| < 10 | Cc1cc(F)c(NC(=O)N2CC[C@H](C3CC3)C2)cc1-c1cc(OCCO)nc(N2CCOCC2)c1 (single isomer, unassigned) [Example 47] |
| < 10 | Cc1cc(F)c(NC(=O)N2CCC3(CCC3(F)F)C2)cc1-c1cc(OCCO)nc(N2CCOCC2)c1 (single isomer, unassigned) [Example 90, 1,1-difluoro-N-[2-fluoro-5-[2-(2-hydroxyethoxy)-6-(morpholin-4-yl)pyridin-4-yl]-4-methylphenyl]-6-azaspiro[3.4]octane-6-carboxamide] |
| < 10 | Cc1cc(F)c(NC(=O)NC2CC2C(F)(F)F)cc1-c1cc(OCCO)nc(N2CCOCC2)c1 (stereo not drawn) [Example 43, 1-[2-fluoro-5-[2-(2-hydroxyethoxy)-6-(morpholin-4-yl)pyridin-4-yl]-4-methylphenyl]-3-[2-(trifluoromethyl)cyclopropyl]urea] |
| < 10 | Cc1ccc(NC(=O)N2CC[C@@H](OC(F)(F)F)C2)cc1-c1cc(OCCO)nc(N2CCOCC2)c1 (single isomer, unassigned) [Example 124] |
| < 10 | Cc1cc(F)c(NC(=O)N2CCC(CF)(C(F)(F)F)C2)cc1-c1cc(OCCO)nc(N2CCOCC2)c1 (stereo not drawn) [Example 45, N-[2-fluoro-5-[2-(2-hydroxyethoxy)-6-(morpholin-4-yl)pyridin-4-yl]-4-methylphenyl]-3-(fluoromethyl)-3-(trifluoromethyl)pyrrolidine-1-carboxamide] |
| < 10 | Cc1ccc(NC(=O)N2CCC(CC(F)(F)F)C2)cc1-c1cc(OC[C@H](O)CO)nc(N2CCOCC2)c1 (stereo partly drawn) [Example 180, N-(3-(2-((R)-2,3-dihydroxypropoxy)-6-morpholinopyridin-4-yl)-4-methylphenyl)-3-(2,2,2-trifluoroethyl)pyrrolidine-1-carboxamide] |
| < 10 | Cc1cc(F)c(NC(=O)N2CC=C(C(F)(F)C(F)(F)F)C2)cc1-c1cc(OCCO)nc(N2CCOCC2)c1 [Example 79, N-[2-fluoro-5-[2-(2-hydroxyethoxy)-6-(morpholin-4-yl)pyridin-4-yl]-4-methylphenyl]-3-(1,1,2,2,2-pentafluoroethyl)-2,5-dihydropyrrole-1-carboxamide] |
| < 10 | Cc1ccc(NC(=O)N2CC[C@@H](OCC(F)(F)F)C2)cc1-c1cc(OCCO)nc(N2CCOCC2)c1 [Example 133, (3R)-N-[3-[2-(2-hydroxyethoxy)-6-(morpholin-4-yl)pyridin-4-yl]-4-methylphenyl]-3-(2,2,2-trifluoroethoxy)pyrrolidine-1-carboxamide] |
| < 10 | Cc1ccc(NC(=O)N2CC[C@@H](CC(F)(F)F)C2)cc1-c1cc(O[C@@H]2CCC(F)(F)C2)nc(N2CCOCC2)c1 [Example 219, (3S)-N-[3-(2-[[(1R)-3,3-difluorocyclopentyl]oxy]-6-(morpholin-4-yl)pyridin-4-yl)-4-methylphenyl]-3-(2,2,2-trifluoroethyl)pyrrolidine-1-carboxamide] |
| 10 to 100 | Cc1cc(F)c(NC(=O)N2CCC(F)(F)CC2)cc1-c1cc(OCCO)nc(N2CCOCC2)c1 [Example 20, 4,4-difluoro-N-[2-fluoro-5-[2-(2-hydroxyethoxy)-6-(morpholin-4-yl)pyridin-4-yl]-4-methylphenyl]piperidine-1-carboxamide] |
| < 10 | Cc1ccc(NC(=O)N2CC[C@@H](CC(F)(F)F)C2)cc1-c1cnc(OC2CCOCC2)c(N2CCOCC2)c1 (single isomer, unassigned) [Example 193] |
| < 10 | Cc1cc(F)c(NC(=O)N2CCOC(C(F)(F)F)C2C)cc1-c1cc(OCCO)nc(N2CCOCC2)c1 (single isomer, unassigned) [Example 112] |
| < 10 | Cc1cc(F)c(NC(=O)N2CC[C@]3(C2)CC(F)(F)C3(F)F)cc1-c1cc(OCCO)nc(N2CCOCC2)c1 (single isomer, unassigned) [Example 105] |
| < 10 | Cc1cc(F)c(NC(=O)N2CC[C@@H](C(F)(F)F)C2)cc1-c1cc(OCCO)nc(N2CCOC[C@H]2C)c1 (single isomer, unassigned) [Example 29] |
| 10 to 100 | Cc1cc(F)c(NC(=O)N2CC3C(C2)C3(F)F)cc1-c1cc(OCCO)nc(N2CCOCC2)c1 (stereo not drawn) [Example 28, 6,6-difluoro-N-[2-fluoro-5-[2-(2-hydroxyethoxy)-6-(morpholin-4-yl)pyridin-4-yl]-4-mehtylphenyl]-3-azabicyclo[3.1.0]hexane-3-carboxamide] |
| < 10 | Cc1cc(F)c(NC(=O)N2CC=C(CC(F)(F)F)C2)cc1-c1cc(OCCO)nc(N2CCOCC2)c1 [Example 96, N-[2-fluoro-5-[2-(2-hydroxyethoxy)-6-(morpholin-4-yl)pyridin-4-yl]-4-methylphenyl]-3-(2,2,2-trifluoroethyl)-2,5-dihydropyrrole-1-carboxamide] |
| < 10 | Cc1ccc(NC(=O)Nc2cnn(CC(F)(F)F)c2)cc1-c1cc(OCCO)nc(N2CCOCC2)c1 [Example 135, 1-[3-[2-(2-hydroxyethoxy)-6-(morpholin-4-yl)pyridin-4-yl]-4-methylphenyl]-3-[1-(2,2,2-trifluoroethyl)pyrazol-4-yl]urea] |
| < 10 | Cc1cc(F)c(NC(=O)N2CCC(C(F)(F)F)C2C)cc1-c1cc(OCCO)nc(N2CCOCC2)c1 (single isomer, unassigned) [Example 67, N-[2-fluoro-5-[2-(2-hydroxyethoxy)-6-(morpholin-4-yl)pyridin-4-yl]-4-methylphenyl]-2-methyl-3-(trifluoromethyl)pyrrolidine-1-carboxamide] |
| < 10 | Cc1ccc(NC(=O)N2CC[C@@H](SC(F)(F)F)C2)cc1-c1cnc(OC2CCOCC2)c(N2CCOCC2)c1 [Example 131, (3R)-N-[4-methyl-3-[5-(morpholin-4-yl)-6-(oxan-4-yloxy)pyridin-3-yl]phenyl]-3-[(trifluoromethyl)sulfanyl]pyrrolidine-1-carboxamide] |
| < 10 | Cc1cc(F)c(NC(=O)N2C[C@@H]3C[C@]3(C(F)(F)F)C2)cc1-c1cc(OCCO)nc(N2CCOCC2)c1 (single isomer, unassigned) [Example 50] |
